Reference: ChEMBL document CHEMBL1143840, “In vivo efficacy of anidulafungin and caspofungin against Candida glabrata and association with in vitro potency in the presence of sera” (Antimicrob Agents Chemother, 2007)
Converted amounts (≈) assume the structure as drawn. “And” between values parts separate entries of the source, which are not always exact repeats. Identical values can stand only once. The source made the active and inactive calls. No cut-off for these calls is given here. *1 amine or outer side, *2 acyl side, *3 side chain or, on linkers, in order; H or OH if unused. Where a SMILES comes first, the peptide text is derived from it. Bridges are numbered along the chain shown (N, C = ends). [ ]: non-standard residue; d: D form. The star is where a group is joined. pTerphenylCO(4''-OnC5H11) = CCCCCOc1ccc(-c2ccc(-c3ccc(C(=O)*)cc3)cc2)cc1; Orn(4R-OH,5R-OH) = O=C([C@H](C[C@@H](O)[C@@H](O)N[*:3])N[*:1])[*:2]; hTyr(3S-OH,4S-OH) = N[C@H](C(=O)O)[C@H](O)[C@@H](O)c1ccc(O)cc1; Pro(3S-OH,4S-Me) = C[C@H]1CN[C@H](C(=O)O)[C@H]1O; Hyp = O=C(O)[C@@H]1C[C@@H](O)CN1

Tests used:
Nakaseomyces glabratus [1] = assay: Antifungal activity against Candida glabrata 05-761 isolate assessed as decrease in fungal turbidity by microdilution method; assay type: functional
Nakaseomyces glabratus [2] = assay: Antifungal activity against Candida glabrata 05-62 isolate assessed as decrease in fungal turbidity in presence of 5% human serum by microdilution method; assay type: functional
Nakaseomyces glabratus [3] = assay: Antifungal activity against Candida glabrata 05-62 isolate after 22 hrs by XTT assay; assay type: functional, organism-based
Nakaseomyces glabratus [4] = assay: Antifungal activity against Candida glabrata 05-761 isolate infected ICR mouse kidney assessed as reduction of tissue fungal burden at 0.5 mg/kg, ip; assay type: functional, organism-based; parameters: dose 0.5 mg/kg
Nakaseomyces glabratus [5] = assay: Antifungal activity against Candida glabrata 05-62 isolate after 2 hrs in presence of 50% mouse serum by XTT reduction assay; assay type: functional
Nakaseomyces glabratus [6] = assay: Antifungal activity against Candida glabrata 05-761 isolate in presence of 5% mouse serum after 24 hrs by broth microdilution method; assay type: functional
Nakaseomyces glabratus [7] = assay: Antifungal activity against Candida glabrata 05-761 isolate after 24 hrs by broth microdilution method; assay type: functional
Nakaseomyces glabratus [8] = assay: Antifungal activity against Candida glabrata 05-62 isolate in presence of 50% human serum after 24 hrs by broth microdilution method; assay type: functional
Nakaseomyces glabratus [9] = assay: Antifungal activity against Candida glabrata 05-62 isolate assessed as decrease in fungal turbidity in presence of 50% human serum by microdilution method; assay type: functional
Nakaseomyces glabratus [10] = assay: Antifungal activity against Candida glabrata 05-761 isolate in presence of 50% mouse serum after 24 hrs by broth microdilution method; assay type: functional
Nakaseomyces glabratus [11] = assay: Antifungal activity against Candida glabrata 05-761 isolate assessed as decrease in fungal turbidity in presence of 50% mouse serum by microdilution method; assay type: functional
Nakaseomyces glabratus [12] = assay: Antifungal activity against Candida glabrata 05-761 isolate in presence of 50% human serum after 24 hrs by broth microdilution method; assay type: functional
Nakaseomyces glabratus [13] = assay: Antifungal activity against Candida glabrata 05-62 isolate in presence of 5% mouse serum after 24 hrs by broth microdilution method; assay type: functional
Nakaseomyces glabratus [14] = assay: Antifungal activity against Candida glabrata 05-761 isolate in presence of 5% human serum after 24 hrs by broth microdilution method; assay type: functional, organism-based
Nakaseomyces glabratus [15] = assay: Antifungal activity against Candida glabrata 05-761 isolate after 22 hrs by XTT assay; assay type: functional, organism-based
Nakaseomyces glabratus [16] = assay: Antifungal activity against Candida glabrata 05-761 isolate assessed as decrease in fungal turbidity in presence of 5% mouse serum by microdilution method; assay type: functional
Nakaseomyces glabratus [17] = assay: Antifungal activity against Candida glabrata 05-62 isolate in presence of 5% human serum after 24 hrs by broth microdilution method; assay type: functional, organism-based
Nakaseomyces glabratus [18] = assay: Antifungal activity against Candida glabrata 05-761 isolate assessed as decrease in fungal turbidity in presence of 5% human serum by microdilution method; assay type: functional
Nakaseomyces glabratus [19] = assay: Antifungal activity against Candida glabrata 05-761 isolate infected ICR mouse kidney assessed as reduction of tissue fungal burden at 5 mg/kg, ip; assay type: functional, organism-based; parameters: dose 5 mg/kg
Nakaseomyces glabratus [20] = assay: Antifungal activity against Candida glabrata 05-761 isolate assessed as decrease in fungal turbidity in presence of 50% human serum by microdilution method; assay type: functional
Nakaseomyces glabratus [21] = assay: Antifungal activity against Candida glabrata 05-62 isolate in presence of 50% mouse serum after 24 hrs by broth microdilution method; assay type: functional
Nakaseomyces glabratus [22] = assay: Antifungal activity against Candida glabrata 05-62 isolate in presence of 5% human serum after 22 hrs by XTT assay; assay type: functional, organism-based
Nakaseomyces glabratus [23] = assay: Antifungal activity against Candida glabrata 05-761 isolate infected ICR mouse kidney assessed as reduction of tissue fungal burden at 1 mg/kg, ip; assay type: functional, organism-based; parameters: dose 1 mg/kg
Nakaseomyces glabratus [24] = assay: Antifungal activity against Candida glabrata 05-62 isolate after 24 hrs by broth microdilution method; assay type: functional
Nakaseomyces glabratus [25] = assay: Antifungal activity against Candida glabrata 05-62 isolate after 2 hrs in presence of 5% mouse serum by XTT reduction assay; assay type: functional
[26] = Nakaseomyces glabratus, 24 h, read-out: MIC

CC[C@H](C)C[C@H](C)CCCCCCCCC(=O)N[C@H]1C[C@@H](O)[C@@H](NCCN)NC(=O)[C@@H]2[C@@H](O)CCN2C(=O)[C@H]([C@H](O)CCN)NC(=O)[C@H]([C@H](O)[C@@H](O)c2ccc(O)cc2)NC(=O)[C@@H]2C[C@@H](O)CN2C(=O)[C@H]([C@@H](C)O)NC1=O [CASPOFUNGIN]
MIC (Nakaseomyces glabratus [1]): 1 µg/mL (≈ 0.915 µM) | MIC (Nakaseomyces glabratus [2]): 2 µg/mL | IC50 (Nakaseomyces glabratus [3]): 1.2 µg/mL (≈ 1.1 µM) | IC90 (Nakaseomyces glabratus [3]): > 32 µg/mL | Activity (Nakaseomyces glabratus [4]): Active | MIC (Nakaseomyces glabratus [5]): 8 µg/mL | MIC (Nakaseomyces glabratus [6]): 1 µg/mL | MIC (Nakaseomyces glabratus [7]; [26]): 2 µg/mL (≈ 1.83 µM) | MIC (Nakaseomyces glabratus [8]): > 32 µg/mL | MIC (Nakaseomyces glabratus [9]): 4 µg/mL | MIC (Nakaseomyces glabratus [10]): 2 µg/mL | MIC (Nakaseomyces glabratus [11]): 2 µg/mL | MIC (Nakaseomyces glabratus [12]): 1 µg/mL | MIC (Nakaseomyces glabratus [13]): > 32 µg/mL | IC50 (Nakaseomyces glabratus [14]): 0.29 µg/mL | IC90 (Nakaseomyces glabratus [14]): 0.33 µg/mL | MIC (Nakaseomyces glabratus [14]): 0.5 µg/mL | IC50 (Nakaseomyces glabratus [15]): 1.1 µg/mL (≈ 1.01 µM) | IC90 (Nakaseomyces glabratus [15]): 1.6 µg/mL (≈ 1.46 µM) | MIC (Nakaseomyces glabratus [16]): 1 µg/mL | IC50 (Nakaseomyces glabratus [17]): 1.4 µg/mL | IC90 (Nakaseomyces glabratus [17]): > 32 µg/mL | MIC (Nakaseomyces glabratus [17]): > 32 µg/mL | MIC (Nakaseomyces glabratus [18]): 0.25 µg/mL | Activity (Nakaseomyces glabratus [19]): inactive | MIC (Nakaseomyces glabratus [20]): 1 µg/mL | MIC (Nakaseomyces glabratus [21]): > 32 µg/mL | IC50 (Nakaseomyces glabratus [22]): 1.4 µg/mL | IC90 (Nakaseomyces glabratus [22]): > 32 µg/mL | Activity (Nakaseomyces glabratus [23]): Active | MIC (Nakaseomyces glabratus [24]; [26]): > 32 µg/mL | MIC (Nakaseomyces glabratus [25]): 4 µg/mL

CCCCCOc1ccc(-c2ccc(-c3ccc(C(=O)N[C@H]4C[C@@H](O)[C@@H](O)NC(=O)[C@@H]5[C@@H](O)[C@@H](C)CN5C(=O)[C@H]([C@@H](C)O)NC(=O)[C@H]([C@H](O)[C@@H](O)c5ccc(O)cc5)NC(=O)[C@@H]5C[C@@H](O)CN5C(=O)[C@H]([C@@H](C)O)NC4=O)cc3)cc2)cc1 [ANIDULAFUNGIN] ({pTerphenylCO(4''-OnC5H11)}-[Orn(4R-OH,5R-OH)]T[Hyp][hTyr(3S-OH,4S-OH)]T[Pro(3S-OH,4S-Me)]; lactam 1-C)
MIC (Nakaseomyces glabratus [1]): 0.06 µg/mL (≈ 0.0526 µM) | MIC (Nakaseomyces glabratus [2]): 2 µg/mL | IC50 (Nakaseomyces glabratus [3]): 0.31 µg/mL (≈ 0.272 µM) | IC90 (Nakaseomyces glabratus [3]): 0.41 µg/mL (≈ 0.36 µM) | Activity (Nakaseomyces glabratus [4]): Active | MIC (Nakaseomyces glabratus [5]): 8 µg/mL | MIC (Nakaseomyces glabratus [6]): 0.5 µg/mL | MIC (Nakaseomyces glabratus [7]): 0.125 µg/mL and 0.06 µg/mL | MIC (Nakaseomyces glabratus [8]): 16 µg/mL | MIC (Nakaseomyces glabratus [9]): 8 µg/mL | MIC (Nakaseomyces glabratus [10]): 1 µg/mL | MIC (Nakaseomyces glabratus [11]): 1 µg/mL | MIC (Nakaseomyces glabratus [12]): 2 µg/mL | MIC (Nakaseomyces glabratus [13]): 4 µg/mL | IC50 (Nakaseomyces glabratus [14]): 0.31 µg/mL | IC90 (Nakaseomyces glabratus [14]): 0.39 µg/mL | MIC (Nakaseomyces glabratus [14]): 0.5 µg/mL | IC50 (Nakaseomyces glabratus [15]): 0.05 µg/mL (≈ 0.0438 µM) | IC90 (Nakaseomyces glabratus [15]): 0.16 µg/mL (≈ 0.14 µM) | MIC (Nakaseomyces glabratus [16]): 0.5 µg/mL | IC50 (Nakaseomyces glabratus [17]): 1.7 µg/mL | IC90 (Nakaseomyces glabratus [17]): 3.1 µg/mL | MIC (Nakaseomyces glabratus [17]): 2 µg/mL | MIC (Nakaseomyces glabratus [18]): 0.5 µg/mL | Activity (Nakaseomyces glabratus [19]): inactive | MIC (Nakaseomyces glabratus [20]): 1 µg/mL | MIC (Nakaseomyces glabratus [21]): 8 µg/mL | IC50 (Nakaseomyces glabratus [22]): 1.7 µg/mL | IC90 (Nakaseomyces glabratus [22]): 3.1 µg/mL | Activity (Nakaseomyces glabratus [23]): Active | MIC (Nakaseomyces glabratus [24]): 0.25 µg/mL (≈ 0.219 µM) | MIC (Nakaseomyces glabratus [24]; [26]): 0.5 µg/mL (≈ 0.438 µM) | MIC (Nakaseomyces glabratus [25]): 4 µg/mL
